Consider 13 compounds from ChEMBL document CHEMBL1201862, “PubChem BioAssay data set” (2004).

Each structure is given as a SMILES string.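 In this assay, cells in 96-well plates receive the compound at five concentrations for 48 hours. Endpoints are linearly interpolated between the surrounding concentrations. GI50 marks 50% less growth.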 Active and inactive are the calls of the source. No stated cut-off is given here; in the data, active = GI50 up to about 1.1 µM and inactive = higher. Residues, ends and D or L forms follow the SMILES beside them. *: point of attachment. Boc = CC(C)(C)OC(=O)*

What is called GI50 is the concentration that inhibits growth by half.

Common to all, as to assay: DTP human tumour cell line panel, 48 h
Test [1] has as its system UACC-257.
The test system of test [2] is COLO 205.
Test [3] has as its system NCI-H460.
For test [4], the system named is NCI/ADR-RES.
The test system of test [5] is SF-295.
Test [6] has as its system IGROV-1.
Test [7] relates to CAKI-1.
Test [8] concerns HCT-15.
The subject of test [9] is MDA-MB-231.
For test [10], the system named is NCI-H226.
In test [11] the test system is HCT-116.
Test [12] concerns K562.
Test [13] concerns SN12C.
The test system of test [14] is SW-620.
Test [15] has as its system RPMI-8226.
In test [16] the test system is HL-60.
For test [17], the system named is RXF 393.

In the case of `COc1ccc(N2C(=O)C3c4[nH]c5cccc(Cl)c5c4C4CCC(C(C)(C)C)CC4C3C2=O)cc1` (stereo not drawn), the GI50 in test [1] is > 100 µM (inactive); in test [2], > 100 µM (inactive); in test [3] it was > 100 µM (inactive); in test [4], > 100 µM (inactive); in test [5] it was 47.2 µM (inactive); in test [6], > 100 µM (inactive). In addition, the GI50 in test [7] is > 100 µM (inactive); in test [8] it was greater than 100 µM; in test [9] it was > 100 µM (inactive); in test [10], > 100 µM (inactive); in test [11], > 100 µM (inactive); in [12], > 100 µM (inactive). Moreover, the GI50 in test [13], in test [14] and in test [15] was > 100 µM (inactive) throughout.
As for `NS(=O)(=O)c1ccc2c(c1)OCCOCCOCCOCCO2`, the GI50 in test [1], in [2], in test [3], in test [5], in [6] and in [7] was > 100 µM (inactive) throughout. Also, the GI50 in test [16] was > 100 µM (inactive); in test [8], greater than 100 µM; in test [9] it was > 100 µM (inactive); in [10], > 100 µM (inactive); in test [11], > 100 µM (inactive); in [12], > 100 µM (inactive). Besides, the GI50 in test [13], in test [14] and in test [15] was > 100 µM (inactive) throughout.
In the case of `Cc1nc(Nc2nc3ccccc3[nH]2)nc(Cl)c1CCCl`, the GI50 in test [1], in test [2], in test [3], in test [4], in test [6] and in test [7] was > 100 µM (inactive) throughout. The GI50 was > 100 µM (inactive) in [16]; greater than 100 µM in test [8]; > 100 µM (inactive) in test [9]; > 100 µM (inactive) in test [10]; > 100 µM (inactive) in test [11]; > 100 µM (inactive) in test [12]. In addition, the GI50 in test [13], in test [14] and in test [15] was > 100 µM (inactive) in each case.
In the case of `O=C1CSC(c2ccccc2[N+](=O)[O-])N1c1ccc(-c2ccc(-n3c(-c4ccccc4)nc4ccccc4c3=O)cc2)cc1` (stereo not drawn), the GI50 was > 100 µM (inactive) in test [1]; > 100 µM (inactive) in test [2]; > 100 µM (inactive) in test [3]; 86.5 µM (inactive) in test [4]; > 100 µM (inactive) in test [5]; 57.1 µM (inactive) in test [6]. The GI50 in test [7] was > 100 µM (inactive); in test [16], > 100 µM (inactive); in [8], 74.3 µM; in test [9] it was > 100 µM (inactive); in [10] it was > 100 µM (inactive); in test [11], 82.6 µM (inactive). The GI50 in test [12] was 67.3 µM (inactive); in [13], > 100 µM (inactive); in test [14], 36.4 µM (inactive); in test [15], 90.2 µM (inactive).
In the case of `Cc1ccc(C2=C(Cl)C(=O)C(c3ccc(C)cc3)=C(Cl)C2=O)cc1`, the GI50 in test [1], in [17], in test [2], in test [3], in test [4] and in test [5] was > 100 µM (inactive) each time. The GI50 in test [6] is > 100 µM (inactive); in test [7] it was > 100 µM (inactive); in test [16], > 100 µM (inactive); in test [8] it was greater than 100 µM; in test [10], > 100 µM (inactive); in test [11], > 100 µM (inactive). In addition, the GI50 in [12], in test [13], in [14] and in test [15] was > 100 µM (inactive) throughout.
Take `CN(C)c1ccc(C=C2C(=O)N(c3ccccc3)N(c3ccccc3)C2=O)cc1`: the GI50 was > 100 µM (inactive) in test [2]; 63.4 µM (inactive) in test [5]; > 100 µM (inactive) in test [6]; greater than 100 µM in test [8]; > 100 µM (inactive) in test [9]; > 100 µM (inactive) in test [10]. Also, the GI50 was > 100 µM (inactive) in test [11]; 61.4 µM (inactive) in [12]; > 100 µM (inactive) in test [13]; > 100 µM (inactive) in test [14]; 69 µM (inactive) in test [15].
Turning to `CC(C)(C)OC(=O)NC(Cc1ccc(O)cc1)C(=O)NC(CCCCN)C(=O)O` (stereo not drawn) (Boc-Tyr-Lys-OH; configuration not given here), the GI50 is 27.5 µM (inactive) in test [1]; 25.2 µM (inactive) in [3]; 17.3 µM (inactive) in [6]; > 10 µM (inactive) in [7]; 23.7 µM (inactive) in test [16]; greater than 10 µM in test [8]. Moreover, the GI50 in test [9] was 21.8 µM (inactive); in test [10], 39.8 µM (inactive); in [11] it was 16.9 µM (inactive); in test [12], 35.8 µM (inactive); in test [13] it was 19.9 µM (inactive); in test [14] it was 33.3 µM (inactive). In test [15], the GI50 was 32.9 µM (inactive).
`O=C1O/C(=C\c2ccc(O)c(Br)c2)C(c2ccc(O)cc2)=C1Cl`: the GI50 in test [1] is 42.7 µM (inactive); in test [17], 29.9 µM (inactive); in test [2], 47.5 µM (inactive); in test [3], 26.6 µM (inactive); in test [4], 29.6 µM (inactive); in [5], 40.5 µM (inactive). Besides, the GI50 in test [6] is 55.6 µM (inactive); in [7], 37 µM (inactive); in test [16], 43.6 µM (inactive); in [8], 36.6 µM; in [11], 34.1 µM (inactive); in test [12], 68.4 µM (inactive). Besides, the GI50 in test [14] was 38.2 µM (inactive); in test [15], 10.1 µM (inactive).
On to `Nc1c(C(=O)O)nnc2cc(Cl)c(Cl)cc12`, for which the GI50 in test [1], in [2], in test [3], in test [4], in test [5] and in test [6] was > 100 µM (inactive) each time. The GI50 is > 100 µM (inactive) in test [7]; 57 µM (inactive) in test [16]; greater than 100 µM in test [8]; > 100 µM (inactive) in test [9]; 47.8 µM (inactive) in test [10]; > 100 µM (inactive) in test [11]. Further, the GI50 in test [12], in [13], in test [14] and in test [15] was > 100 µM (inactive) in each case.
As to `CN(C)CCCNC(=O)CNC(=O)c1cc(NC(=O)c2cc(NC(=O)c3cc(NC(=O)CCNC(=O)c4cc(NC(=O)c5cc(NC(=O)c6nccn6C)cn5C)cn4C)cn3C)cn2C)cn1C`, the GI50 in test [1], in test [2], in test [3], in test [4], in test [5] and in test [6] was > 100 µM (inactive) in each case. Moreover, the GI50 in test [7] is > 100 µM (inactive); in test [16], 43 µM (inactive); in test [8] it was greater than 100 µM; in test [9], > 100 µM (inactive); in [10] it was > 100 µM (inactive); in [11], > 100 µM (inactive). For the same compound, the GI50 in test [12] is 59.4 µM (inactive); in test [13], > 100 µM (inactive); in test [14], > 100 µM (inactive); in [15], > 100 µM (inactive).
With `CCCC[C@H]1CCN2C[C@@H](O)[C@@H](O)[C@H]2[C@@H]1O`, the GI50 in test [1], in test [2], in test [3], in test [4], in test [5] and in test [6] was > 100 µM (inactive) each time. Moreover, the GI50 is > 100 µM (inactive) in [7]; > 100 µM (inactive) in [16]; greater than 100 µM in test [8]; > 100 µM (inactive) in test [9]; > 100 µM (inactive) in test [10]; > 100 µM (inactive) in [11]. Further, the GI50 in test [12], in [13], in test [14] and in test [15] was > 100 µM (inactive) each time.
Consider `Cn1cc2c3ccccc3nc-2c2ccccc21` [ISOCRYPTOLEPINE], for which the GI50 in test [1] is 2.31 µM (inactive); in test [2] it was 1.46 µM (inactive); in test [3], 1.44 µM (inactive); in test [4], 1.72 µM (inactive); in test [5], 2.78 µM (inactive); in [6], 1.63 µM (inactive). The GI50 in test [7] was 2.32 µM (inactive); in test [16], 2.04 µM (inactive); in test [8], 1.97 µM; in test [9], 2.35 µM (inactive); in test [11] it was 1 µM (active); in test [12], 1.94 µM (inactive). In addition, the results for the GI50 in [13], in test [14] and in test [15] were 1.57 µM (inactive), 1.12 µM (inactive) and 1.53 µM (inactive), respectively.
Regarding `CC1(C)N=C(N)N=C(N)N1c1cccc(OCCOc2ccc([N+](=O)[O-])cc2)c1`, the GI50 is 57.7 µM (inactive) in test [1]; 21.8 µM (inactive) in test [17]; 37.4 µM (inactive) in test [2]; 7.53 µM (inactive) in test [3]; > 100 µM (inactive) in test [5]; 1.96 µM (inactive) in [6]. Further, the GI50 in [7] is > 100 µM (inactive); in [16], 66.8 µM (inactive); in [8], greater than 100 µM; in [9] it was > 100 µM (inactive); in test [11], 4.81 µM (inactive); in [12], 41.9 µM (inactive). Also, the GI50 in [13] was 6.49 µM (inactive); in test [14], 3.68 µM (inactive); in test [15] it was 16.5 µM (inactive).
